Experimental findings from publication PMC6248945, “Antibacterial properties of the pituitary adenylate cyclase-activating polypeptide: A new human antimicrobial peptide” (PLoS ONE, 2018) are described below.

Structures are written as SMILES. Converted amounts (≈) assume the structure as drawn. Where a SMILES comes first, the peptide text is derived from it. Some results are limits rather than exact numbers.

In one assay the test system is Escherichia coli (JM109). Briefly: MIC, CLSI microdilution. It counts as cell-based. The settings on record: MHB, 37 °C, 20h, OD read-out, at least triplicate. As to the method:
Assays were performed according to the CLSI microdilution method. Briefly, the bacterial strains were inoculated and allowed to reach an OD600 of 0.08–0.13 prior to dilution to 10^6 CFU/mL in Mueller-Hinton broth (MHB). A bacterial suspension (50 μL) was then added to each well of a 96-well microplate containing serially diluted peptide solutions (50 μL in MHB) and incubated at 37 °C for 20h. A well containing sterilized medium was used as a sterility control and another well containing no added peptide served as a growth control.
A general note: Dilution methods test growth across graded concentrations, often in twofold steps.

Assay [1] relates to Pseudomonas putida (KT2440). Conditions: 20 h.
Assay [2] concerns Burkholderia cenocepacia (J2315). Conditions: 20 h.
Assay [3] relates to Actinobacillus pleuropneumoniae (4074). The settings on record: 20 h.
A further assay deals with Bacillus subtilis (PY79). Conditions: PY79, 20 h.
Assay [4] has as its system Bacillus amyloliquefaciens (LMG22478). Conditions: LMG22478, 20 h.
Assay [5] concerns Burkholderia cenocepacia (K56-2). The settings on record: 20 h.
For another assay, the system named is Bacillus subtilis (2597). Conditions: 2597, 20 h.

Consider `CSCC[C@H](NC(=O)[C@H](CCC(N)=O)NC(=O)[C@H](CCCCN)NC(=O)[C@H](CCCNC(=N)N)NC(=O)[C@H](Cc1ccc(O)cc1)NC(=O)[C@H](CCCNC(=N)N)NC(=O)[C@H](CO)NC(=O)[C@H](Cc1ccc(O)cc1)NC(=O)[C@@H](N)CO)C(=O)N[C@@H](C)C(=O)N[C@H](C(=O)N[C@@H](CCCCN)C(=O)N[C@@H](CCCCN)C(=O)N[C@@H](Cc1ccc(O)cc1)C(=O)N[C@@H](CC(C)C)C(=O)N[C@@H](C)C(=O)N[C@@H](C)C(=O)N[C@H](C(=O)N[C@@H](CC(C)C)C(=O)NCC(=O)N[C@@H](CCCCN)C(=O)N[C@@H](CCCNC(=N)N)C(=O)N[C@@H](Cc1ccc(O)cc1)C(=O)N[C@@H](CCCCN)C(=O)N[C@@H](CCC(N)=O)C(=O)N[C@@H](CCCNC(=N)N)C(=O)N[C@H](C(=O)N[C@@H](CCCCN)C(=O)N[C@@H](CC(N)=O)C(=O)N[C@@H](CCCCN)C(N)=O)C(C)C)C(C)C)C(C)C` [compound 10, PACAP(9–38)] (H-SYSRYRKQMAVKKYLAAVLGKRYKQRVKNK-NH2), for which, in the assay on Escherichia coli (JM109), the “MIC, Escherichia coli (JM109)” value was above 183 µg/mL. Also, the “MIC, Pseudomonas putida (KT2440)” value in assay [1] was above 183 µg/mL. In assay [2], the “MIC, Burkholderia cenocepacia (J2315)” value turned out to be 19 µg/mL (≈ 5.19 µM). Moreover, the “MIC, Actinobacillus pleuropneumoniae” value in assay [3] was above 183 µg/mL. In the assay on Bacillus subtilis (PY79), the “MIC, Bacillus subtilis (PY79)” value was above 183 µg/mL. In addition, the “MIC, Bacillus amyloliquefaciens” value in assay [4] was above 183 µg/mL. In addition, in assay [5], the “MIC, Burkholderia cenocepacia (K56-2)” value is above 183 µg/mL. Moreover, the “MIC, Bacillus subtilis (2597)” value in the assay on Bacillus subtilis (2597) is above 183 µg/mL.
